Laboratory results reported in patent US10350218B2, “Isoquinolidinobenzodiazepine (IQB)-1(chloromethyl)-2,3-dihydro-1H-benzo[e]indole (CBI) dimers” (priority 2016, dated 2019).
In brackets after ≈: the same amount, converted by molar mass.

T1: human interleukin 1 receptor accessory protein (IL1RAP) (human, UniProt Q9NPH3 21-570)
T1 construct: The target is carried by human cell lines: EOL1 at high copy number, HL-60 and SK-MEL-5 at low copy number
T1 sequence: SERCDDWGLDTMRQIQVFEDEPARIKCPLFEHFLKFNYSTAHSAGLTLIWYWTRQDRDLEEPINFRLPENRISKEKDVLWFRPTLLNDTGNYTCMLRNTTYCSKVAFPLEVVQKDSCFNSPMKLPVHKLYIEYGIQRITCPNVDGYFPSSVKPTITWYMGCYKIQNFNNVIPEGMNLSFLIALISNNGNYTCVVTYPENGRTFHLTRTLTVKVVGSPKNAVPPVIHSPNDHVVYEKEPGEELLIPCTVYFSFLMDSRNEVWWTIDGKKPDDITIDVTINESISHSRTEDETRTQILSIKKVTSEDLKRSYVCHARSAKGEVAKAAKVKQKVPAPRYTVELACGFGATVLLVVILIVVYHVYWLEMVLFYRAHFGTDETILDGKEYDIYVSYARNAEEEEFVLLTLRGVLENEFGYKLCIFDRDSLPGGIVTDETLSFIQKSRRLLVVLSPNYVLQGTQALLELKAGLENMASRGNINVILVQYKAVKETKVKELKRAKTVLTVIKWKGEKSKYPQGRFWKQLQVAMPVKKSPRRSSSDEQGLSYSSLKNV


Experiments:
AML2 cell line = assay: Cell killing assay (cytotoxicity) of IQB-CBI dimers, AML2; assay type: cell-based; settings: 72 h; AML2 cells; 3-day incubation
Procedure: (§1) Cytotoxicity of D801, D803, D05, D807, D809, D811, D813, D815 and D817 were tested against AML2 and HL60 cell lines. Cell killing assay was performed after 3-day incubation with various IQB-CBI dimers.

HL60 cell line = assay: Cell killing assay (cytotoxicity) of IQB-CBI dimers, HL60; assay type: cell-based; settings: Homo sapiens, HL-60, 72 h; HL60 cells; 3-day incubation
Procedure: as §1

[1] = biological target: T1, human interleukin 1 receptor accessory …; assay: flow cytometry (MFI, anti-human APC secondary) on HL-60, EOL1 and SK-MEL-5 cells expressing IL1RAP
Text: FIGS. 15 and 16 show binding, as a function of mean fluorescent intensity, of humanized (hu3G7) or chimeric (Chi3G7) anti-IL1RAP antibody to various cell lines. HL-60 cells (human promyelocytic leukemia cells), EOL1 cells (human eosinophilic leukemia cells) and SK-MEL-5 cells (human melanoma cell line) express IL1RAP, and EOL1 cells do so with high expression. C0 antibody is a non-binding control IgG1. D212 is a composition having the formula: […]
The cells were resuspended in binding buffer (PBS, 2% FBS)) containing 5% NHS (normal human serum) to 2 ×10^6 cells/mL. To 50 µL of cells, 50 µL of primary antibody/ADC was added and incubated at 4° for 30 min. After incubation, cells were wasked with binding buffer 2 times and then resuspended and incubated with second antibody (anti-human APC, 1:400 in the binding buffer) at 4° for 30 min. Cells were washed with binding buffer and resuspended in 200 uL of binding buffer with propidium iodide. Cells were immediately applied to flow cytometry for analysis. Mean fluorescence intensity (MFI) of the stained sample was measured.

Molecule	IC50 (AML2 cell line)	IC50 (HL60 cell line)	binding result [1]
COc1cc2c(cc1OCCCCCC(=O)N1CC(CCl)c3c1cc(O)c1ccccc31)N=C[C@@H]1Cc3ccccc3CN1C2=O (stereo partly drawn) [D813, (6aS)-3-((6-(1-(chloromethyl)-5-hydroxy-1,2-dihydro-3H-benzo[e]indol-3-yl)-6-oxohexyl)oxy)-2-methoxy-7,12-dihydrobenzo[5,6][1,4]diazepino[1,2-b]isoquinolin-14(6aH)-one]	0.00028 ng/mL (≈ 0.000439 nM)	0.00072 ng/mL (≈ 0.00113 nM)	–
humanized, cys-substituted (S156C) anti-IL1RAP antibody 3G7 (hu3G7), tested as antibody and as IQB-CBI antibody-drug conjugates (antibody, human IgG1, kappa, V domains shown, IQB-CBI dimer linker-payload (D816, D818, D820, D822, D824, D826 or D828) attached by maleimide to the substituted cysteine (S156C); DAR 1.7-2.0, also called 3G7-S156C-CYSMAB; hu3G7-IQB-CBI) VH: EVQLVQSGAEVKKPGASVKISCKASGYTFTNYGMHWVRQAPGQGLEWMGWINTYTGEPTYAQKFQGRFTFTLDTSTSTAYLEIRSLRSDDTAVYYCARYYGNFDYWGQGTLLTVSS VL: EIVMTQSPATLSVSPGERATLSCRASQSISNNLHWYQQKPGQAPRLLIYYASQSISGIPARFSGSGSGTEFTLTISSLQSEDFAVYYCQQSHNWPHTFGQGTKLEIKR	–	–	binds
chimeric, cys-substituted (S156C) anti-IL1RAP antibody 3G7 (Chi3G7; human constant domain, mouse variable domain), tested as antibody and as IQB-CBI … (antibody, V domains shown, IQB-CBI dimer linker-payload (D816, D818, D820, D822, D824, D826 or D828) on the substituted cysteine S156C of the heavy chain constant region (constant region sequence not given), also called Chi3G7-(IQB-CBI) ADC; Chi3G7-CLT-(IQB-CBI) ADC) VH: QIQLVQSGPELKKPGETVKISCKASGYTFTNYGMHWVKQSPGEGLKWMGWINTYTGEPTYADDFKGRFGFSLETSASSAYLQINDLKNEDMATYFCARYYGNFDYWGQGTTLTVSS VL: DIVLTQSPATLSVTPGDSVSLSCRASQSISNNLHWYQQKSHESPRLLIKYASQSISGIPSRFSGSGSGTDFTLSINSVETEDFGVYFCQQSHNWPHTFGGGTKLEIKR	–	–	binds
